Among the test systems are SF-539; SW-620; EKVX; ACHN; HT-29; TK-10; CCRF-CEM; RXF 393; HOP-62; HCT-15; OVCAR-5; U-251; KM-20L2; HOP-92; Hs-578T; MDA-N; DU-145; T47D; NCI/ADR-RES; MDA-MB-435.
Experiment in all cases: growth of human tumour cells (NCI), 48 h

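Where inhibition never reached the appropriate level, the endpoint shown equals the highest concentration tested. Otherwise, values were interpolated linearly from a five-concentration, 48-hour dose response in 96-well plates. Abbreviation: GI50, concentration required for 50% inhibition of growth.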 Active and inactive are the calls of the source. Rule as the data show it: active = GI50 up to about 1.1 µM and inactive = higher.

`NC(CO)c1ccccc1` (centres undefined): the GI50 with SF-539, with SW-620, with EKVX, in the test with ACHN, in the test on HT-29 and with TK-10 was > 100 µM (inactive) each time. Also, the GI50 with CCRF-CEM is 8.71 µM (inactive); in the test with RXF 393 it was > 100 µM (inactive); in the test on HOP-62, > 100 µM (inactive); in the test on HCT-15, above 100 µM; with OVCAR-5, > 100 µM (inactive); with U-251, > 100 µM (inactive). Moreover, the GI50 in the test with KM-20L2 and in the test on HOP-92 was > 100 µM (inactive) each time.

`C/C=C(/C)C(=O)O[C@@H]1c2c(C)coc2C[C@H]2CC[C@H](O)[C@H](C)[C@]21C`: the GI50 was 31.9 µM (inactive) in the test on SF-539; 24 µM (inactive) with SW-620; > 100 µM (inactive) with EKVX; 36.9 µM (inactive) in the test on ACHN; 47.1 µM (inactive) with HT-29; 64.6 µM (inactive) with TK-10. The GI50 with Hs-578T was 64.7 µM (inactive); with MDA-N, 50 µM (inactive); in the test on CCRF-CEM, 36.7 µM (inactive); with DU-145 it was > 100 µM (inactive); in the test with T47D, 68.9 µM (inactive); in the test on NCI/ADR-RES, 23.1 µM (inactive). Further, the GI50 was 27 µM (inactive) with RXF 393; > 100 µM (inactive) with HOP-62; 78.5 µM in the test on HCT-15; 38.5 µM (inactive) in the test with MDA-MB-435; > 100 µM (inactive) in the test with OVCAR-5; > 100 µM (inactive) with U-251. In addition, the GI50 with HOP-92 is 74.8 µM (inactive).

On to `COc1ccc2[nH]c3c(C)c4cc[n+](C)cc4c(C)c3c2c1`, for which the GI50 in the test with SF-539 was 0.345 µM (active); in the test with SW-620, 1.11 µM (active); in the test with EKVX it was 1.16 µM (inactive); in the test on ACHN, 14 µM (inactive); in the test on HT-29 it was 4.83 µM (inactive); in the test on Hs-578T it was 0.199 µM (active). Moreover, the GI50 in the test on CCRF-CEM is 1.72 µM (inactive); in the test with NCI/ADR-RES it was 22 µM (inactive); with RXF 393, 1.32 µM (inactive); in the test on HOP-62, 0.621 µM (active); with OVCAR-5, 9.51 µM (inactive); in the test on U-251, 0.191 µM (active). Moreover, the GI50 was 3.17 µM (inactive) in the test with KM-20L2 and 3.21 µM (inactive) in the test with HOP-92.

`c1ccc(COc2ccc(CC3SCCCS3)cc2)cc1`: the GI50 in the test with SW-620, in the test on EKVX, in the test with ACHN, with HT-29, in the test with TK-10 and in the test with MDA-N was > 100 µM (inactive) throughout. Besides, the GI50 was 43.6 µM (inactive) in the test with CCRF-CEM; > 100 µM (inactive) in the test on DU-145; 49.7 µM (inactive) in the test on T47D; > 100 µM (inactive) with HOP-62; 67.3 µM in the test with HCT-15; > 100 µM (inactive) in the test with MDA-MB-435. Also, in the test on HOP-92, the GI50 was 17.8 µM (inactive).

As to `Cc1cc(O)nc(NN2C(Cl)C(=O)C2c2cccc(O)c2)n1` (centres undefined), the GI50 was 2.74 µM (inactive) in the test with SF-539; 12.4 µM (inactive) in the test with SW-620; 17.9 µM (inactive) with EKVX; 4.61 µM (inactive) with ACHN; 41.7 µM (inactive) in the test with HT-29; 42.5 µM (inactive) in the test with TK-10. Moreover, the GI50 in the test with CCRF-CEM was 4.63 µM (inactive); in the test on RXF 393 it was 3.48 µM (inactive); with HOP-62, 4.49 µM (inactive); in the test on HCT-15, 5.74 µM; in the test with OVCAR-5, 24.9 µM (inactive); with U-251 it was 3.05 µM (inactive). For the same compound, the values for the GI50 with KM-20L2 and in the test on HOP-92 were 10.3 µM (inactive) and 4.67 µM (inactive), respectively.

For the origin of these results see ChEMBL document CHEMBL1201862, “PubChem BioAssay data set” (2004).
